Experimental data as given in article PMC3352081, “Discovery of catalytically active orthologues of the Parkinson's disease kinase PINK1: analysis of substrate specificity and impact of mutations” (Open biology, 2011).
Values joined by “and” are separate entries in the source; they are usually repeats but may differ in a detail not shown here. Identical values can stand only once.

Molecular target: T1, full-length TcPINK1 (1–570) (Tribolium castaneum, UniProt D6WMX4)
T1 construct: Kinetics of phosphorylation of PINKtide and indicated variants by full-length TcPINK1 (1–570); made in house; host or cells: E. coli BL21 Codon+
T1 sequence (D6WMX4 1-570): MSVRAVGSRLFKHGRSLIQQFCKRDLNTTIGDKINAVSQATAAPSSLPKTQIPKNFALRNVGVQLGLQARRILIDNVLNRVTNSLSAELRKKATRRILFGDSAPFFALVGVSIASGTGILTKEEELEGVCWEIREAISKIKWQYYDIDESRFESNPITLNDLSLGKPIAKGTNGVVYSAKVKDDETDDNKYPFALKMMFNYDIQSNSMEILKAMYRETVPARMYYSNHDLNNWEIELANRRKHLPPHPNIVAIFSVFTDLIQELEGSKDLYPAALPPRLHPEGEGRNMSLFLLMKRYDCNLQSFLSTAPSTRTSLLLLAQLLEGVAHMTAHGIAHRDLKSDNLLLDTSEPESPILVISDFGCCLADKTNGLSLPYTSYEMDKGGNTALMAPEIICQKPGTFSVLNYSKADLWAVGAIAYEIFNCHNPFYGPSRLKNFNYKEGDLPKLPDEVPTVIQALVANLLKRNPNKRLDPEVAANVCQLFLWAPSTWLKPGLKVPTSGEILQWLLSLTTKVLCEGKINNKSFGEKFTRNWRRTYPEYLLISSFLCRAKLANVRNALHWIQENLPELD
Assay: Peptide substrate kinase assay: phosphorylation of PINKtide and variants, [γ-32P] ATP, P81 paper
Format: biochemical
Conditions: phosphorylation of the peptide substrate by full-length TcPINK1 (1–570), kinase 1 µM, 0.1 mM [γ-32P] ATP, 30°C, n.d. = peptide phosphorylated poorly, kinetic values not determinable; for Km: 10 mM MgCl2, 50 mM Tris–HCl pH 7.5, 30 min, nonlinear regression (GraphPad Prism), similar results in at least two experiments; for Vmax: 30 min, 1 U = incorporation of 1 nmol of ATP into substrate, nonlinear regression
Description: For assays using peptide substrates, assays were set up in a volume of 50 µl, with all kinases at 1 µM and peptide substrates at the indicated concentrations in 50 mM Tris–HCl (pH 7.5), 0.1 mM EGTA, 10 mM MgCl2, 2 mM dithiothreitol and 0.1 mM [γ-^32P] ATP. Assays were incubated for 30 min at 30°C with shaking at 1200 r.p.m., and terminated by spotting of 40 µl of the reaction mixture onto P81 phosphocellulose paper and washing in 50 mM phosphoric acid. After extensive further washing, incorporation of [γ-^32P] ATP into substrates was quantified by Cerenkov counting. For MBP assays using P81 paper, 5 µg of MBP was used.
One unit of TcPINK1 activity was defined as the amount of enzyme that catalysed the incorporation of 1 nmol of ATP into a given substrate. Km and Vmax values were determined by analysing the phosphorylation of PINKtide and its variants at various concentrations. Km and Vmax values were calculated using the GRAPHPAD PRISM program.

| Substance | Km | Vmax [U mg^−1] |
| --- | --- | --- |
| KKKIpYRRSPRRR [PINKtide variant at the −5 position] | 165 µM | 2 |
| KKWIpTRRSPRRR [PINKtide variant at the −3 position] | 970 µM | 8 |
| KKWIERRSPRRR [PINKtide variant at the −3 position] | 36 µM | 2 |
| KKLIpYRRSPRRR [PINKtide variant at the −5 position] | 381 µM | 5 |
| KKWIpSRRSPRRR [PINKtide variant at the −3 position] | 117 µM | 3 |
| KKEIpYRRSPRRR [PINKtide variant at the −5 position] | 192 µM | 6 |
| KKWITRRSPRRR [PINKtide variant at the −3 position] | 278 µM | 3 |
| KKWIFRRSPRRR [PINKtide variant at the −3 position] | 63 µM | 2 |
| KKWIKRRSPRRR [PINKtide variant at the −3 position] | 50 µM | 1 |
| KKWIpYRRSPRRR [PINKtide, optimal peptide substrate for TcPINK1, KKWIpYRRSPRRR] | 493 µM and ~500 µM | – |
| KKFIpYRRSPRRR [PINKtide variant at the −5 position] | 163 µM | 3 |
| KKWIYRRSPRRR [PINKtide variant at the −3 position] | 30 µM | 3 |
| KKAIpYRRSPRRR [PINKtide variant at the −5 position] | 435 µM | 8 |
| KKWIpYRRTPRRR [PINKtide variant, phosphorylated Ser changed to Thr] | 756 µM | 8 |
| KKWISRRSPRRR [PINKtide variant at the −3 position] | 81 µM | 3 |
